Data reported in ChEMBL document CHEMBL4725372, “Rational Design of Suprastat: A Novel Selective Histone Deacetylase 6 Inhibitor with the Ability to Potentiate Immunotherapy in Melanoma Models” (J Med Chem, 2020).
pIC50: −log10 of the molar value. The source made the active and inactive calls. No cut-off for these calls is given here.

Columns and labels:
Histone deacetylase 11 = target: T1, Histone deacetylase 11 (Homo sapiens, UniProt Q96DB2); assay: Inhibition of human HDAC11 expressed in HEK293/T17 cells pre-incubated for 10 mins before […] addition and measured after 30 mins by fluorescence-based assay; type: cell-based
T1 sequence (Q96DB2 whole entry): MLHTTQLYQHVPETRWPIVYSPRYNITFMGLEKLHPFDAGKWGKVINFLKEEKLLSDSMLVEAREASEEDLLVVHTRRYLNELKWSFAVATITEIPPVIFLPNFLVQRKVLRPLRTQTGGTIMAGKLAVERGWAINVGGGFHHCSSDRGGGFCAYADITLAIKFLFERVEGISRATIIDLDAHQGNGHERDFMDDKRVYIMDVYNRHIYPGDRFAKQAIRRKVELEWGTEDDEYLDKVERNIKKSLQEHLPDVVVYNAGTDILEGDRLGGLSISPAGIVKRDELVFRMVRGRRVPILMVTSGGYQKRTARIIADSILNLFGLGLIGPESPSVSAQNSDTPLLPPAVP

HEK293 [1] = assay: Selectivity index, ratio of IC50 for human HDAC4 expressed in HEK293/T17 cells (unknown origin) to human HDAC6 expressed in HEK293/T17 cells; type: cell-based
HEK293 [2] = assay: Selectivity index, ratio of IC50 for human HDAC6 expressed in HEK293/T17 cells (unknown origin) to human HDAC6 expressed in HEK293/T17 cells; type: cell-based
HEK293 [3] = assay: Selectivity index, ratio of IC50 for human HDAC7 expressed in HEK293/T17 cells (unknown origin) to human HDAC6 expressed in HEK293/T17 cells; type: cell-based
[4] = Half life in human plasma at 10 uM by LC-MS/MS analysis; type: ADME, cell-free
[5] = target: T2, Protein deacetylase HDAC6 (Homo sapiens) (UniProt Q9UBN7); assay: Inhibition of human HDAC6 in human WM164 cells increase in acetylated alpha-tubulin levels at 0.1 to 10 uM by immunoblot analysis; type: cell-based; conditions: dose microM 0.1-10
T2 sequence (whole entry): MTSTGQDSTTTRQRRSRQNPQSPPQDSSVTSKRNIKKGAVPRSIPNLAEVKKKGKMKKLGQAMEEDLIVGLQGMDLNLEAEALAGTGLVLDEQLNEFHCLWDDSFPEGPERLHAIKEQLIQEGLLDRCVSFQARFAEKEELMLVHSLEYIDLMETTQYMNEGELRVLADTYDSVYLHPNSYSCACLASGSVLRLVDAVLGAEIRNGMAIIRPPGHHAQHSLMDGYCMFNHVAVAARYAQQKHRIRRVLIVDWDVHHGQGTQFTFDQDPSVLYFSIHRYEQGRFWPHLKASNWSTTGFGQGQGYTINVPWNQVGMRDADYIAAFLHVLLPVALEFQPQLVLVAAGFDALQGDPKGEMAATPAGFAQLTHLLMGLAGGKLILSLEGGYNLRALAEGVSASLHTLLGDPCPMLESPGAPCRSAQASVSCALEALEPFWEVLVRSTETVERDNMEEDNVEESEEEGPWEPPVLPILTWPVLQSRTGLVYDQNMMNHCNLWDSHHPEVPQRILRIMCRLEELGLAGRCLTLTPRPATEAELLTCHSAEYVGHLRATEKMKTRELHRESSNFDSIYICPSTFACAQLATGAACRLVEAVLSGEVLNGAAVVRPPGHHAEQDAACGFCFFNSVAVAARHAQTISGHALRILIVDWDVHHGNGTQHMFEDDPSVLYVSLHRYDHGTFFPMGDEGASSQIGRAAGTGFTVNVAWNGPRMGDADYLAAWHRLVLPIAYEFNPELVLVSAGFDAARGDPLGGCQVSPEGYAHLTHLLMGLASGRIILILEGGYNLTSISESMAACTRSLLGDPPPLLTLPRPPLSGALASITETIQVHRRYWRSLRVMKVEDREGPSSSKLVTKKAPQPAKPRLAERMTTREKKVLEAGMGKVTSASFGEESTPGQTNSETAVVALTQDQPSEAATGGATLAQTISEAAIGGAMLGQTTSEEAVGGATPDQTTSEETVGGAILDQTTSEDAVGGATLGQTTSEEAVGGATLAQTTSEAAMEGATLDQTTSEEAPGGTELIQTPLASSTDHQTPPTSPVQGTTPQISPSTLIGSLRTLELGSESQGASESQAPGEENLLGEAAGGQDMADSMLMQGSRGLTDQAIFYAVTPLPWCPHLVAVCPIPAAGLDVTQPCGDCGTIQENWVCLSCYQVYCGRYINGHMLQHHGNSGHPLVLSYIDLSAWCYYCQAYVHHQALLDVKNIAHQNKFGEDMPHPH

[6] = target: Histone deacetylase (Homo sapiens) (UniProt Q13547+O15379+Q9UBN7+Q92769+Q9UQL6+Q8WUI4+Q9BY41+Q96DB2+P56524+Q9UKV0+Q969S8); assay: Inhibition of human HDAC in human WM164 cells increase in acetylated histone H3 levels at 0.1 to 10 uM by immunoblot analysis; type: cell-based; conditions: dose microM 0.1-10
SM1 [7] = assay: Cytotoxicity in mouse SM1 cells assessed as reduction in cell viability up to 25 uM; type: functional, cell-based; conditions: dose microM <=25
[8] = target: T2, Protein deacetylase HDAC6 (Homo sapiens); assay: Inhibition of human HDAC6 in human WM164 cells assessed as decrease in STAT3 Y705 phosphorylation at 5 uM pre-incubated before IL6 stimulation for 20 mins by immunoblot analysis; type: cell-based
SM1 [9] = assay: Antitumor activity against mouse SM1 cells transplanted in C57BL/6 mouse assessed as decrease in tumor burden at 25 mg/kg, ip dosed 5 days per week before starting 15 mg/kg, ip anti-PD1 immune checkpoint blockade therapy; type: functional, organism-based; conditions: time 5.0 day/week
Mus musculus [10] = assay: Immunomodulatory activity in C57BL/6 mouse harboring mouse SM1 cells assessed as reduction in F4/80+ CD206+ pro-tumor M2 macrophages at 25 mg/kg, ip dosed 5 days per week before starting 15 mg/kg, ip anti-PD1 immune checkpoint blockade therapy by flow cytometry; type: functional, organism-based; conditions: time 5.0 day/week
Mus musculus [11] = assay: Immunomodulatory activity in C57BL/6 mouse harboring mouse SM1 cells assessed as reduction in F4/80+ CD206+ pro-tumor M2 macrophages at 25 mg/kg, ip dosed 5 days per week by flow cytometry; type: functional, organism-based; conditions: time 5.0 day/week
Mus musculus [12] = assay: Immunomodulatory activity in C57BL/6 mouse harboring mouse SM1 cells assessed as increase in CD8+ central memory cells at 25 mg/kg, ip dosed 5 days per week before starting 15 mg/kg, ip anti-PD1 immune checkpoint blockade therapy by flow cytometry; type: functional, organism-based; conditions: time 5.0 day/week
Mus musculus [13] = assay: Immunomodulatory activity in C57BL/6 mouse harboring mouse SM1 cells assessed as effect on CD4+ T cells at 25 mg/kg, ip dosed 5 days per week by flow cytometry; type: functional, organism-based; conditions: time 5.0 day/week
Mus musculus [14] = assay: Immunomodulatory activity in C57BL/6 mouse harboring mouse SM1 cells assessed as effect on immunosuppressive T-regs at 25 mg/kg, ip dosed 5 days per week before starting 15 mg/kg, ip anti-PD1 immune checkpoint blockade therapy by flow cytometry; type: functional, organism-based; conditions: time 5.0 day/week
Mus musculus [15] = assay: Immunomodulatory activity in C57BL/6 mouse harboring mouse SM1 cells assessed as reduction in natural killer T cells at 25 mg/kg, ip dosed 5 days per week before starting 15 mg/kg, ip anti-PD1 immune checkpoint blockade therapy by flow cytometry; type: functional, organism-based; conditions: time 5.0 day/week

pIC50 (Histone deacetylase 11): < 4.30
half-life at 10 µM [4]: > 5 h
inhibition [5]: Dose-dependent effect
inhibition [6]: Active
inhibition [8]: Active
SMILES: NCc1ccc(NC(=O)N(CCCCO)Cc2ccc(C(=O)NO)cc2)cc1
Ratio IC50 (HEK293 [1]): 20600
Ratio IC50 (HEK293 [2]): 1
Ratio IC50 (HEK293 [3]): 3680
Activity (SM1 [7]): inactive
TGI (SM1 [9]): Active
Activity (Mus musculus [10]): Active
Activity (Mus musculus [11]): Active
Activity (Mus musculus [12]): Active
Activity (Mus musculus [13]): inactive
Activity (Mus musculus [14]): inactive
Activity (Mus musculus [15]): Active
